Molecular target: T1, hNLRP3 (Homo sapiens, UniProt Q96P20)
T1 construct: THP-1 cells were purchased from the American Type Culture Collection; host or cells: THP-1 cells, PMA-differentiated, stimulated with gramicidin
Test: IL-1β production in PMA-differentiated THP-1 cells stimulated with gramicidin (hTHP-1 assay)
Format: cell-based
Conditions: read-out: NLRP3 Antagonist, hNLRP3 (THP-1, IL-1b) Normalized: GeoMean IC50
Protocol: Procedure 1: IL-1β Production in PMA-Differentiated THP-1 Cells Stimulated with Gramicidin.
THP-1 cells were purchased from the American Type Culture Collection and sub-cultured according to instructions from the supplier. […] Prior to the experiment, compounds were dissolved in dimethyl sulfoxide (DMSO) to generate a 30 mM stock. […] DMSO was backfilled in the plate to achieve a final DMSO assay concentration of 0.37%. The plate was then sealed and stored at room temperature until required.
THP-1 cells were treated with PMA (Phorbol 12-myristate 13-acetate) (20 ng/ml) for 16-18 hours. On the day of the experiment the media was removed and adherent cells were detached with trypsin for 5 minutes.
Procedure 2: IL-1β Production in PMA-Differentiated THP-1 Cells Stimulated with Gramicidin.
THP-1 cells were purchased from the American Type Culture Collection and sub-cultured according to instructions from the supplier. […] Prior to the experiment THP-1 were treated with PMA (Phorbol 12-myristate 13-acetate) (20 ng/ml) for 16-18 hours. Compounds were dissolved in dimethyl sulfoxide (DMSO) to generate a 30 mM stock. On the day of the experiment the media was removed and adherent cells were detached with trypsin for 5 minutes. […] Final DMSO concentration was at 0.37%. Cells were incubated with compounds for 1 hour and then stimulated with gramicidin (5 μM) (Enzo) for 2 hours. Plates were then centrifuged at 340 g for 5 min. Cell free supernatant (40 μL) was collected using a 96-channel PlateMaster (Gilson) and the production of IL-1β was evaluated by HTRF (cisbio).
1. Experimental procedure
1.2 Compound Preparation • Prepare the 3-fold serial dilution of the compounds with DMSO in a 384-well LDV Microplate using TECAN EVO system to generate the compound source plate with 10 concentrations. Top concentration is 30 mM. FIG. 5 depicts the layout of the microplate.
FIG. 5 depicts the layout of the plates: HC: 100 μM CRID3 (MCC950)+5 μM gramicidin LC: 5 μM Gramicidin.
1.5 IL-1β Detection • 1) Homogenize the 5× diluent #5 with a vortex and add 1 volume of stock solution in 4 volumes of distilled water. • 2) Thaw 20× stock solution of anti-IL1β-Cryptate-antibody and anti-IL1β XL-antibody. […] 2. Data Analysis: • 1.

T1 sequence (Q96P20 whole entry): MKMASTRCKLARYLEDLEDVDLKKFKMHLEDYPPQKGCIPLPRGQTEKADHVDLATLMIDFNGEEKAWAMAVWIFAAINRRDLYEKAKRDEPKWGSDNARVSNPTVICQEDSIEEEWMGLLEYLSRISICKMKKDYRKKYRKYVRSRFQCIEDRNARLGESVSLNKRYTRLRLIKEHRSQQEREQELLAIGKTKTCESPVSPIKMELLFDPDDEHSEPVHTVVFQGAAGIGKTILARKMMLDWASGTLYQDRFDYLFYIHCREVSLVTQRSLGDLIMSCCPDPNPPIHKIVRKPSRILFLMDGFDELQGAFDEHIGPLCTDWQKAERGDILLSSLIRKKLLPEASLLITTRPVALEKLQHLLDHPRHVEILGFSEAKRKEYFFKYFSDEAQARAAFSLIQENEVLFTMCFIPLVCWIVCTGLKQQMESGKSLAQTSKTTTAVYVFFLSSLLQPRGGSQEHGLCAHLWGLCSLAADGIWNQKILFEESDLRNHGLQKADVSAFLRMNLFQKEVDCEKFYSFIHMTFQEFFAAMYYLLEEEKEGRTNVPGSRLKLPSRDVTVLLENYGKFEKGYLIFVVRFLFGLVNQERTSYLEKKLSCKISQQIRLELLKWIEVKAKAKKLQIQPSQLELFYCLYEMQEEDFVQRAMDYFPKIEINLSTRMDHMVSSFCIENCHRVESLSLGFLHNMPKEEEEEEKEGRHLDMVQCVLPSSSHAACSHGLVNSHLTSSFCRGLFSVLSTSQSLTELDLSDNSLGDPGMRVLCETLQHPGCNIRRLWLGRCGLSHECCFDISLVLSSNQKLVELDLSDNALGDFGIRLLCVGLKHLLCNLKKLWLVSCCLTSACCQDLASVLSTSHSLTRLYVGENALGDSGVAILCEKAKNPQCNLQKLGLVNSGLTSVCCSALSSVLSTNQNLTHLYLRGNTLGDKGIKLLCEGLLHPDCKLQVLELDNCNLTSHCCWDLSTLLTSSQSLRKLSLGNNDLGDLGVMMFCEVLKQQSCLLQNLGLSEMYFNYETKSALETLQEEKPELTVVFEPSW

Question: `CC(C)c1cc2c(c(C(C)C)c1CC(=O)N=S1(=O)NC(=O)c3ccc(C(C)(C)O)cc31)COC2` (stereo not shown) [Compound 104, 2-(4,6-diisopropyl-1,3-dihydroisobenzofuran-5-yl)-N-(6-(2-hydroxypropan-2-yl)-1-oxido-3-oxo-2,3-dihydro-1l4-benzo[d]isothiazol-1-ylidene)acetamide] was tested. Which IC50 did it give?
Answer: > 30 µM

Question: `CN(C)Cc1ccc2c(c1)S(=O)(=NC(=O)Nc1c3c(cc4c1CCC4)CCC3)NC2=O` (stereo not shown) [Compound 110, 1-(6-((dimethylamino)methyl)-1-oxido-3-oxo-2,3-dihydro-1l4-benzo[d]isothiazol-1-ylidene)-3-(1,2,3,5,6,7-hexahydro-s-indacen-4-yl)urea] was tested. Which IC50 did it give?
Answer: 1 to 5 µM

Question: How did the IC50 turn out when `CN(C)C(=O)c1ccc2c(c1)S(=O)(=NC(=O)Nc1c3c(cc4c1CCC4)CCC3)NC2=O` (stereo not shown) [Compound 214, 1-(((1,2,3,5,6,7-hexahydro-s-indacen-4-yl)carbamoyl)imino)-N,N-dimethyl-3-oxo-2,3-dihydro-1H-1l4-benzo[d]isothiazole-6-carboxamide 1-oxide] was run?
Answer: 5 to 30 µM

Question: With `O=C(N=S1(=O)NC(=O)c2ccc(CO)cc21)Nc1c2c(cc3c1CCC3)CCC2` (stereo not shown) [Compound 216, 1-(1,2,3,5,6,7-hexahydro-s-indacen-4-yl)-3-(6-(hydroxymethyl)-1-oxido-3-oxo-2,3-dihydro-1l4-benzo[d]isothiazol-1-ylidene)urea] as the molecule, how does the IC50 read?
Answer: 0.2 to 1 µM

Question: Which IC50 does the source give for `CC(O)(CO)c1ccc2c(c1)S(=O)(=NC(=O)Nc1c3c(cc4c1CCC4)CCC3)NC2=O` (single isomer, unassigned) [Compound 208a, 1-((1R or S)-6-(1,2-dihydroxypropan-2-yl)-1-oxido-3-oxo-2,3-dihydro-1l4-benzo[d]isothiazol-1-ylidene)-3-(1,2,3,5,6,7-hexahydro-s-indacen-4-yl)urea] here?
Answer: 1 to 5 µM

Question: With `CC(C)(O)c1ccc2c(c1)S(=O)(=NC(=O)Nc1c3c(cc4c1CCC4)CCC3)NC2=O` (single isomer, unassigned) [Compound 127b, (S or R)-1-(1,2,3,5,6,7-hexahydro-s-indacen-4-yl)-3-(6-(2-hydroxypropan-2-yl)-1-oxido-3-oxo-2,3-dihydro-1l4-benzo[d]isothiazol-1-ylidene)urea] as the molecule, how does the IC50 read?
Answer: 5 to 30 µM

Question: With `CC(C)(O)c1ccc2c(c1)S(=O)(=NC(=O)Nc1c3c(cc4c1CCC4)CCC3)NC2=O` (racemic) [Compound 127, 1-(1,2,3,5,6,7-hexahydro-s-indacen-4-yl)-3-[6-(2-hydroxypropan-2-yl)-1,3-dioxo-2,3-dihydro-1-^λ-6,2-benzothiazol-1-ylidene]urea] as the molecule, how does the IC50 read?
Answer: 0.2 to 1 µM

Question: Which IC50 does the source give for `CC(C)(O)c1cc2c(s1)S(=O)(=NC(=O)Nc1c3c(cc4c1CCC4)CCC3)NC2=O` (stereo not shown) [Compound 229, 1-(1,2,3,5,6,7-hexahydro-s-indacen-4-yl)-3-(5-(2-hydroxypropan-2-yl)-1-oxido-3-oxo-2,3-dihydro-1l4-thieno[3,2-d]isothiazol-1-ylidene)urea] here?
Answer: 5 to 30 µM

Question: `CC(C)(O)c1ccc2c(c1)S(=O)(=NC(=O)Nc1c3c(nc(C4CC4)c1C1CC1)CCC3)NC2=O` (single isomer, unassigned) [Compound 106a, 1(R or S)-1-(2,3-dicyclopropyl-6,7-dihydro-5H-cyclopenta[b]pyridin-4-yl)-3-(6-(2-hydroxypropan-2-yl)-1-oxido-3-oxo-2,3-dihydro-1l4-benzo[d]isothiazol-1-ylidene)urea] was tested. Which IC50 did it give?
Answer: 1 to 5 µM

Question: For `Cc1c(C(F)(F)F)nc2c(c1NC(=O)N=S1(=O)NC(=O)c3ccc(C(C)(C)O)cc31)CCC2` (single isomer, unassigned) [Compound 108a, (R or S)-1-(6-(2-hydroxypropan-2-yl)-1-oxido-3-oxo-2,3-dihydro-1l4-benzo[d]isothiazol-1-ylidene)-3-(3-methyl-2-(trifluoromethyl)-6,7-dihydro-5H-cyclopenta[b]pyridin-4-yl)urea], which IC50 is on record?
Answer: 0.2 to 1 µM

Question: Which IC50 does the source give for `O=C(N=S1(=O)NC(=O)c2cccnc21)Nc1c2c(cc3c1CCC3)CCC2` (single isomer, unassigned) [Compound 223b, (R or S)-1-(1,2,3,5,6,7-hexahydro-s-indacen-4-yl)-3-(1-oxido-3-oxo-2,3-dihydro-1l4-isothiazolo[5,4-b]pyridin-1-ylidene)urea] here?
Answer: 5 to 30 µM

Question: With `O=C(N=S1(=O)NC(=O)c2ccccc21)Nc1c2c(cc3c1CCC3)CCC2` (single isomer, unassigned) [Compound 129a, 3-[(1R or 1S)-1,3-dioxo-2,3-dihydro-1-^λ-6,2-benzothiazol-1-ylidene]-1-(1,2,3,5,6,7-hexahydro-s-indacen-4-yl)urea] as the molecule, how does the IC50 read?
Answer: 0.2 to 1 µM

Question: How did the IC50 turn out when `CC(C)(O)c1ccc2c(c1)S(=O)(=NC(=O)Cc1c3c(cc4c1CCC4)CCC3)NC2=O` (stereo not shown) [Compound 115, 2-(1,2,3,5,6,7-hexahydro-s-indacen-4-yl)-N-(6-(2-hydroxypropan-2-yl)-1-oxido-3-oxo-2,3-dihydro-1l4-benzo[d]isothiazol-1-ylidene)acetamide] was run?
Answer: > 30 µM

Question: With `CN(C)Cc1ccc2c(c1)C(=O)NS2(=O)=NC(=O)Nc1c2c(cc3c1CCC3)CCC2` (stereo not shown) [Compound 125, 1-{5-[(dimethylamino)methyl]-1,3-dioxo-2,3-dihydro-1$l6,2-benzothiazol-1-ylidene}-3-(1,2,3,5,6,7-hexahydro-s-indacen-4-yl)urea] as the molecule, how does the IC50 read?
Answer: 5 to 30 µM

Question: How did the IC50 turn out when `CC(C)c1cc(C(F)F)cc(C(C)C)c1CC(=O)N=S1(=O)NC(=O)c2cc(CN(C)C)ccc21` (stereo not shown) [Compound 124, 2-[4-(difluoromethyl)-2,6-bis(propan-2-yl)phenyl]-N-{5-[(dimethylamino)methyl]-1,3-dioxo-2,3-dihydro-1$l6,2-benzothiazol-1-ylidene}acetamide] was run?
Answer: > 30 µM

Question: With `O=C(N=S1(=O)CC2(COC2)C(=O)N1)Nc1c2c(cc3c1CCC3)CCC2` (single isomer, unassigned) [Compound 132b, (R or S)-1-(1,2,3,5,6,7-hexahydro-s-indacen-4-yl)-3-(6-oxido-8-oxo-2-oxa-6l6-thia-7-azaspiro[3.4]octan-6-ylidene)urea] as the molecule, how does the IC50 read?
Answer: 5 to 30 µM

Question: Which IC50 does the source give for `CN1C(=O)c2ccccc2S1(=O)=NC(=O)Nc1c2c(cc3c1CCC3)CCC2` (stereo not shown) [Compound 116] here?
Answer: > 30 µM

Question: `O=C(N=S1(=O)NC(=O)c2ccc(-n3cccn3)cc21)Nc1c2c(cc3c1CCC3)CCC2` (single isomer, unassigned) [Compound 211b, (R or S)-1-(1,2,3,5,6,7-hexahydro-s-indacen-4-yl)-3-(1-oxido-3-oxo-6-(1H-pyrazol-1-yl)-2,3-dihydro-1l4-benzo[d]isothiazol-1-ylidene)urea] was tested. Which IC50 did it give?
Answer: > 30 µM

Question: With `CC(C)(O)c1ccc2c(c1)S(=O)(=NC(=O)Nc1c3c(nc(C4CC4)c1C1CC1)CCC3)NC2=O` (stereo not shown) [Compound 106, 1-(2,3-dicyclopropyl-6,7-dihydro-5H-cyclopenta[b]pyridin-4-yl)-3-(6-(2-hydroxypropan-2-yl)-1-oxido-3-oxo-2,3-dihydro-1l4-benzo[d]isothiazol-1-ylidene)urea] as the molecule, how does the IC50 read?
Answer: 1 to 5 µM

Question: How did the IC50 turn out when `O=C(N=S1(=O)CCC(Cc2ccccc2)C(=O)N1)Nc1c2c(cc3c1CCC3)CCC2` (stereo not shown) [Compound 266, 1-(4-benzyl-1-oxido-3-oxo-1l6,2-thiazinan-1-ylidene)-3-(1,2,3,5,6,7-hexahydro-s-indacen-4-yl)urea] was run?
Answer: 5 to 30 µM

Question: How did the IC50 turn out when `CC(C)(O)c1ccc2c(c1)C(=O)NS2(=O)=NC(=O)Nc1c2c(cc3c1CCC3)CCC2` (stereo not shown) [Compound 121, 1-(1,2,3,5,6,7-hexahydro-s-indacen-4-yl)-3-(5-(2-hydroxypropan-2-yl)-1-oxido-3-oxo-2,3-dihydro-1l4-benzo[d]isothiazol-1-ylidene)urea] was run?
Answer: 0.2 to 1 µM

Question: Which IC50 does the source give for `O=C(N=S1(=O)NC(=O)c2ccc(CN3CCC3)cc21)Nc1c2c(cc3c1CCC3)CCC2` (stereo not shown) [Compound 204, 1-(6-(azetidin-1-ylmethyl)-1-oxido-3-oxo-2,3-dihydro-1l4-benzo[d]isothiazol-1-ylidene)-3-(1,2,3,5,6,7-hexahydro-s-indacen-4-yl)urea] here?
Answer: 0.2 to 1 µM

Question: Which IC50 does the source give for `CC(C)(O)c1ccc2c(c1)S(=O)(=NC(=O)Nc1c3c(cc4c1CCC4)CCC3)NC2=O` (single isomer, unassigned) [Compound 127a, (R or S)-1-(1,2,3,5,6,7-hexahydro-s-indacen-4-yl)-3-(6-(2-hydroxypropan-2-yl)-1-oxido-3-oxo-2,3-dihydro-1l4-benzo[d]isothiazol-1-ylidene)urea] here?
Answer: 0.04 to 0.2 µM

Question: For `O=C1CC(Cc2ccccc2)S(=O)(=NC(=O)Nc2c3c(cc4c2CCC4)CCC3)N1` (stereo not shown) [Compound 101, 1-(5-benzyl-1-oxido-3-oxo-1l6-isothiazolidin-1-ylidene)-3-(1,2,3,5,6,7-hexahydro-s-indacen-4-yl)urea], which IC50 is on record?
Answer: 1 to 5 µM

Question: How did the IC50 turn out when `O=C(N=S1(=O)CC2(COC2)C(=O)N1)Nc1c2c(cc3c1CCC3)CCC2` (stereo not shown) [Compound 132, 1-(1,2,3,5,6,7-hexahydro-s-indacen-4-yl)-3-(6-oxido-8-oxo-2-oxa-6l6-thia-7-azaspiro[3.4]octan-6-ylidene)urea] was run?
Answer: 1 to 5 µM
